# Data taken from patent US20210330606A1, “GLUCOSE CONSUMPTION ACCELERATOR AND GLYCOLYSIS ACCELERATOR” (SHINKO SANGYO Co., Ltd., priority 2018, published 2021).
# “And” between values parts separate entries of the source, which are not always exact repeats. Equal values may be shown once.
# Assays:
# [1] = tested on: Male mice of ICR strain; assay: Blood glucose level of mice after oral glucose load with the drug; assay type: in vivo, mouse; details: drug 50 mg/kg + glucose 2000 mg/kg oral
# Description: As a drug, 2-amino-1-phenylethanol was used. First, glucose (KANTO CHEMICAL CO., INC.) was dissolved in water for injection so as to achieve a concentration of 200 mg/ml, thereby preparing a glucose solution. Next, the drug was dissolved in the water for injection, and then the glucose solution was added thereto so that the drug and glucose had final concentrations of 2.5 mg/ml and 100 mg/ml, respectively, thereby preparing a sample. As a control of the drug, the culture was performed in the same manner except that 100 mg/ml glucose solution to which the drug was not added was used instead of the sample.
# Male mice of 6-week-old ICR strain were purchased from Japan SLC, Inc., and preliminary rearing was carried out for about 1 week to check there was no abnormality in performance status. The conditions for the preliminary rearing were as follows: 4 mice each were housed in a polycarbonate cage, room temperature was 23° C.±3° C., and illumination time was 12 hours/day. Diets (mice and rat chow, product of Nosan Corporation) and drinking water (tap water) were freely ingested.
# After the preliminary rearing, the mice were fasted for about 21 hours, and then body weight and blood glucose levels were measured. The mice were divided into the total of two groups, namely, a test group and a control group to ensure that there was no variation in blood glucose levels between the groups. The number of animals in each group was eight.
# After the grouping, mice of the test group and the control group were orally administered a single dose of the sample and the control, respectively, using a gastric sonde to a dose volume of 20 ml/kg. That is, the test group mice were administered the drug and glucose at doses of 50 mg/kg and 2000 mg/kg, respectively, and the control group mice were administered glucose at a dose of 2000 mg/kg. With the time of the administration being regarded as 0 minutes, the blood glucose level was measured at 30 minutes, 60 minutes, 90 minutes, and 120 minutes. The blood glucose level was measured by using an ACCU-CHEK Aviva (Roche Diagnostics K.K.), blood was collected by inserting an injection needle into the tip of the tail, and the blood glucose level was measured for the collected blood.
# As to the blood glucose levels at 0 minutes, 30 minutes, 60 minutes, 90 minutes and 120 minutes, the test group and the control group were compared by t-test. The significance levels were 5% and 1%.
# In addition, the area under the curves (AUCs) were calculated for the measured blood glucose levels. The AUC was calculated by calculating the area surrounded by the measurement curve and a straight line parallel to the time axis and passing through the measured value at the time of administration in the graph with the measured value on the vertical axis and the time on the horizontal axis. Then, the test group and the control group were compared by t-test for AUC in the same manner as the comparison for the blood glucose level.
# [2] = tested on: rat-derived liver cancer cells (Ry121B, subculture line); assay: Lactate concentration in culture solution of liver cancer cells (relative value, control = 100); assay type: cell-based; details: drug 1 mg/ml, control = 100 (FIG. 7B)
# Description: First, samples of 2-amino-1-cyclohexylethanol and 2-amino-1-phenylethanol were prepared in the same manner as in Example 1. The fibroblasts and the liver cancer cells were cultured under the same conditions as in Examples 1 and 5. […] As a control, the culture was performed in the same manner except that distilled water to which the drug was not added was added to the culture solution instead of the sample.
# (§1) After the addition of the drug, the culture solution was diluted so that the weight ratio of the culture solution to distilled water was 1:19, and the lactate concentration of the diluted culture solution was measured. The lactate concentration was measured using a lactate assay kit (product name: Lactate Assay Kit-WST, product of Dojindo Laboratories).
# [3] = tested on: Py-3Y1-S2, TE-13, VERO and HepG2 cells; assay: Lactate concentration after 2 to 3 days culture, lactate metabolism, mean over four cell types (Example 9); assay type: cell-based, rat, human, African green monkey; details: drug 0.5 mg/ml, 2 to 3 days (48 to 72 hours) culture, mean of four experiments
# Description: as §1
# First, samples of 2-amino-1-cyclohexylethanol (2-amino-1-cyclohexyl EOH) and 2-amino-1-phenylethanol (2-amino-1-phenyl EOH) were prepared in the same manner as in Example 1. Four types of cells were used as in Example 8, and each of the cells was cultured under the same conditions as in Example 1. […] Thereafter, the culture time was lengthened to 2 to 3 days (48 to 72 hours) compared to Example 8. As a control 1, the culture was performed in the same manner except that distilled water to which the drug was not added was added to the culture solution instead of the sample. As a control 2, the culture was performed in the same manner as the […] except that a sample of biguanide prepared in the same manner as in Example 1 was added to the culture solution instead of the sample. Then, the lactate concentration in each sample was measured in the same manner as in Example 6. Each of the four cells was used for a total of four experiments.
smiles,measurement,setting,value
NCC(O)c1ccccc1 (stereo not drawn) [2-amino-1-phenylethanol],AUC Calculated value (blood glucose),"[1]; individual mice, 0-120 minutes above value at administration",173 mg/dL·h and 142 mg/dL·h (2×) and 177 mg/dL·h and 171 mg/dL·h and 132 mg/dL·h and 127 mg/dL·h and 258 mg/dL·h
same,blood glucose level,"[1]; individual mice, 0 minutes (time of administration)",46 mg/dL and 53 mg/dL and 61 mg/dL and 70 mg/dL and 54 mg/dL and 60 mg/dL and 86 mg/dL and 59 mg/dL
same,blood glucose level,"[1]; individual mice, 30 minutes post-administration",177 mg/dL and 194 mg/dL (2×) and 222 mg/dL and 165 mg/dL and 202 mg/dL and 219 mg/dL and 256 mg/dL
same,blood glucose level,"[1]; individual mice, 60 minutes post-administration",151 mg/dL and 136 mg/dL (2×) and 180 mg/dL and 171 mg/dL and 141 mg/dL and 160 mg/dL and 223 mg/dL
same,blood glucose level,"[1]; individual mice, 90 minutes post-administration",121 mg/dL and 93 mg/dL and 138 mg/dL (2×) and 117 mg/dL and 91 mg/dL and 120 mg/dL and 176 mg/dL
same,blood glucose level,"[1]; individual mice, 120 minutes post-administration",116 mg/dL and 91 mg/dL and 112 mg/dL and 113 mg/dL and 108 mg/dL and 79 mg/dL and 111 mg/dL and 134 mg/dL
same,AUC Mean value ± Standard error (blood glucose),[1]; test group No. 1 to No. 8,165 ± 15 mg·h/dL
same,relative value of lactate concentration,[2],about 135
same,lactate concentration in the culture solution compared to control 1,[3],equivalent to that of control 1
